The NIST ThermoML archive (doi:10.1016/j.jct.2007.11.001)
Several values for one entry are separate records, joined by “and”; a condition that tells them apart may be missing. Equal values may be shown once.

Test: molar heat capacity at constant pressure
Conditions: 101.33 kPa, Crystal 1, Small (less than 1 g) adiabatic calorimetry

O=P([O-])([O-])[O-].[Cs+].[Mg+2] [caesium-magnesium monophosphate]
Conditions | molar heat capacity at constant pressure
292.8 K | 121 J/K/mol
294.9 K | 121.5 J/K/mol
297 K | 121.9 J/K/mol
298.15 K | 122.1 J/K/mol
298.84 K | 122.3 J/K/mol
300 K | 122.6 J/K/mol
300.7 K | 122.7 J/K/mol
303.3 K | 123.3 J/K/mol
305.9 K | 123.9 J/K/mol
308 K | 124.4 J/K/mol
310 K | 124.8 J/K/mol
310.1 K | 124.8 J/K/mol
312.4 K | 125.4 J/K/mol
314.7 K | 125.9 J/K/mol
316.4 K | 126.2 J/K/mol
318 K | 126.5 J/K/mol
320 K | 127 J/K/mol
321.1 K | 127.2 J/K/mol
324.2 K | 128 J/K/mol
325.3 K | 128.2 J/K/mol
326.4 K | 128.5 J/K/mol
329.66 K | 129.1 J/K/mol
330 K | 129.2 J/K/mol
330.5 K | 128.9 J/K/mol
332.91 K | 129.7 J/K/mol
333.99 K | 129.9 J/K/mol
334.4 K | 129.7 J/K/mol
335.08 K | 130.1 J/K/mol
338.2 K | 130.6 J/K/mol
338.3 K | 130.5 J/K/mol
340 K | 131 J/K/mol
341.8 K | 131.2 J/K/mol
342.2 K | 131.4 J/K/mol
343.4 K | 131.5 J/K/mol
345.83 K | 132 J/K/mol
346.1 K | 132.2 J/K/mol
348.25 K | 132.5 J/K/mol
350 K | 133 J/K/mol and 132.7 J/K/mol
350.05 K | 132.7 J/K/mol
351.85 K | 133 J/K/mol
353.9 K | 133 J/K/mol
357.8 K | 133.9 J/K/mol
360 K | 135 J/K/mol
361.7 K | 134.7 J/K/mol
365.5 K | 135.5 J/K/mol
369.2 K | 136.4 J/K/mol
370 K | 136 J/K/mol
372.9 K | 136.4 J/K/mol
376.6 K | 137.2 J/K/mol
380 K | 138 J/K/mol
380.2 K | 138 J/K/mol
383.7 K | 138 J/K/mol
387.2 K | 138.9 J/K/mol
390 K | 140 J/K/mol
390.7 K | 139.7 J/K/mol
394.2 K | 140.5 J/K/mol
397.7 K | 140.5 J/K/mol
400 K | 141 J/K/mol
401.3 K | 141.3 J/K/mol
404.8 K | 141.3 J/K/mol
408.5 K | 142.2 J/K/mol
410 K | 142 J/K/mol
412.1 K | 143 J/K/mol
415.8 K | 143 J/K/mol
419.6 K | 143.8 J/K/mol
420 K | 144 J/K/mol
423.3 K | 144.7 J/K/mol
427 K | 145.5 J/K/mol
430 K | 146 J/K/mol
430.6 K | 145.5 J/K/mol
434.3 K | 146.3 J/K/mol
437.9 K | 146.3 J/K/mol
440 K | 147 J/K/mol
441.6 K | 147.2 J/K/mol
445.2 K | 148 J/K/mol
448.8 K | 148 J/K/mol
450 K | 148 J/K/mol
452.5 K | 148.8 J/K/mol
456.1 K | 148.8 J/K/mol
459.8 K | 149.7 J/K/mol
460 K | 150 J/K/mol
463.4 K | 150.5 J/K/mol
467.1 K | 150.5 J/K/mol
470 K | 151 J/K/mol
470.7 K | 151.3 J/K/mol
474.4 K | 151.3 J/K/mol
478.1 K | 152.2 J/K/mol
480 K | 152 J/K/mol
481.8 K | 152.2 J/K/mol
485.4 K | 153 J/K/mol
489.1 K | 153.8 J/K/mol
490 K | 154 J/K/mol
492.7 K | 153.8 J/K/mol
496.4 K | 154.6 J/K/mol
500 K | 154.6 J/K/mol and 155 J/K/mol
503.7 K | 155.5 J/K/mol
507.3 K | 155.5 J/K/mol
510 K | 156 J/K/mol
511 K | 156.3 J/K/mol
514.6 K | 156.3 J/K/mol
518.3 K | 157.1 J/K/mol
520 K | 157 J/K/mol
521.8 K | 157.1 J/K/mol
525.4 K | 158 J/K/mol
529 K | 158 J/K/mol
530 K | 159 J/K/mol
532.6 K | 158.8 J/K/mol
536.1 K | 158.8 J/K/mol
539.8 K | 159.6 J/K/mol
540 K | 160 J/K/mol
543.3 K | 159.6 J/K/mol
546.9 K | 160.5 J/K/mol
550 K | 160 J/K/mol
550.5 K | 160.5 J/K/mol
554.1 K | 161.3 J/K/mol
557.7 K | 161.3 J/K/mol
560 K | 162 J/K/mol
561.4 K | 162.1 J/K/mol
565 K | 162.1 J/K/mol
568.7 K | 163 J/K/mol
570 K | 163 J/K/mol
572.4 K | 163 J/K/mol
576.1 K | 163.8 J/K/mol
579.8 K | 163.8 J/K/mol
580 K | 164 J/K/mol
583.4 K | 164.6 J/K/mol
587.1 K | 164.6 J/K/mol
590 K | 165 J/K/mol
590.7 K | 165.5 J/K/mol
594.3 K | 165.5 J/K/mol
597.9 K | 166.3 J/K/mol
600 K | 166 J/K/mol
603.4 K | 166.3 J/K/mol
607 K | 167.1 J/K/mol
610 K | 167 J/K/mol
610.6 K | 167.1 J/K/mol
614.2 K | 168 J/K/mol
617.7 K | 168 J/K/mol
620 K | 168 J/K/mol
621.4 K | 168 J/K/mol
625 K | 168.8 J/K/mol
628.6 K | 168.8 J/K/mol
630 K | 169 J/K/mol
632.3 K | 169.6 J/K/mol
636 K | 169.6 J/K/mol
639.7 K | 170.4 J/K/mol
640 K | 170 J/K/mol
643.3 K | 170.4 J/K/mol
648.9 K | 171.3 J/K/mol
650 K | 171 J/K/mol
